Among the data in ChEMBL document CHEMBL5120857, “Rational design, synthesis and biological evaluation of dual PARP-1/2 and TNKS1/2 inhibitors for cancer therapy” (Eur J Med Chem, 2022) are IC50, inhibition and CC50 values, retold here.

Data set [1] concerns the target T1, Poly [ADP-ribose] polymerase tankyrase-1 (Homo sapiens, UniProt O95271).
T1 sequence (O95271 whole entry): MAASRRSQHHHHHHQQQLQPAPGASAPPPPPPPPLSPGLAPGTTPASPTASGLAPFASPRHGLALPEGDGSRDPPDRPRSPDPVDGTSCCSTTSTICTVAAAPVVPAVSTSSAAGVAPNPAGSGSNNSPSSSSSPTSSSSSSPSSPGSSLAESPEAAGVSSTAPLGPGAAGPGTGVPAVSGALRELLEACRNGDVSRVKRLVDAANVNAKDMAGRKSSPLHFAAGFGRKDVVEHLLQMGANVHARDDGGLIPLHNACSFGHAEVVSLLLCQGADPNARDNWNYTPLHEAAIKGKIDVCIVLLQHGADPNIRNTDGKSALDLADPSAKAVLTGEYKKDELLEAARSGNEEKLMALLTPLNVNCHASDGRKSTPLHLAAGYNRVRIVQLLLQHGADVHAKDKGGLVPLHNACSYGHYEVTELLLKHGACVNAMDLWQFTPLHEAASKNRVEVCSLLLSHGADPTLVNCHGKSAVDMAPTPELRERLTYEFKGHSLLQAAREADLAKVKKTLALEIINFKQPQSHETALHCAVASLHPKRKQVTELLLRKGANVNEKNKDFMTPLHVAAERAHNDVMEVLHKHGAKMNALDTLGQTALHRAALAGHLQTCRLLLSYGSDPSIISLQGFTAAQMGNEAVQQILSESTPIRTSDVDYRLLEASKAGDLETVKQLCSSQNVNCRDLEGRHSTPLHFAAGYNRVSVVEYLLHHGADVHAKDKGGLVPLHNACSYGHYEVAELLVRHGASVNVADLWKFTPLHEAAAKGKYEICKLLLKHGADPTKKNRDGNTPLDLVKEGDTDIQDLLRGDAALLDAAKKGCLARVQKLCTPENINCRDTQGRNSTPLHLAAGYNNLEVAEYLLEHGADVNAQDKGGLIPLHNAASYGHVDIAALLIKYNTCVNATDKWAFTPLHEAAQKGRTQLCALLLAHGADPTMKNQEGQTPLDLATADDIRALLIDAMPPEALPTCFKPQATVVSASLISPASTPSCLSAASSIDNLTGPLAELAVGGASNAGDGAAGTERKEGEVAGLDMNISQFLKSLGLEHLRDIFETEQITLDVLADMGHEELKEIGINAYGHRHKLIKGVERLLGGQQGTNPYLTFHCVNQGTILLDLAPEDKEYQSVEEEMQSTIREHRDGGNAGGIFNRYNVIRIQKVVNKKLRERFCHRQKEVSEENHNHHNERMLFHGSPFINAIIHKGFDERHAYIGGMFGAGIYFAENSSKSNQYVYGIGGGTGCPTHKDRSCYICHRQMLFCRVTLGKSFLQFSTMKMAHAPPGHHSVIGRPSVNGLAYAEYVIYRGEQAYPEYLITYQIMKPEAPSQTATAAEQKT
Briefly: Inhibition of TNKS1 (unknown origin) using biotin-NAD+ as substrate incubated for 1 hr in the presence of deoxy-oligonucleotide by ELISA analysis relative to control. A general note: ELISA stands for enzyme-linked immunosorbent assay.

In data set [2] the test system is HCT-116. Briefly: Antiproliferative activity against human HCT-116 cells assessed as inhibition of cell growth incubated for 7 days by MTT assay. It counts as functional, cell-based. The following applies: HCT-116, 168 h. For orientation: Tetrazolium dyes change colour on reduction, which living cells bring about.
Another data set relates to MDA-MB-231. Briefly: Antiproliferative activity against human MDA-MB-231 cells assessed as inhibition of cell growth incubated for 7 days by MTT assay. Format: functional, cell-based. The note with it: MDA-MB-231, 168 h.
For data set [3], the target named is T2, Poly [ADP-ribose] polymerase 1 (Homo sapiens, UniProt P09874). The note with it: dose 10.0 nM, time 45.0 min.
Data set [4] deals with T3, Poly [ADP-ribose] polymerase tankyrase-2 (Homo sapiens, UniProt Q9H2K2).
T3 sequence (Q9H2K2 whole entry): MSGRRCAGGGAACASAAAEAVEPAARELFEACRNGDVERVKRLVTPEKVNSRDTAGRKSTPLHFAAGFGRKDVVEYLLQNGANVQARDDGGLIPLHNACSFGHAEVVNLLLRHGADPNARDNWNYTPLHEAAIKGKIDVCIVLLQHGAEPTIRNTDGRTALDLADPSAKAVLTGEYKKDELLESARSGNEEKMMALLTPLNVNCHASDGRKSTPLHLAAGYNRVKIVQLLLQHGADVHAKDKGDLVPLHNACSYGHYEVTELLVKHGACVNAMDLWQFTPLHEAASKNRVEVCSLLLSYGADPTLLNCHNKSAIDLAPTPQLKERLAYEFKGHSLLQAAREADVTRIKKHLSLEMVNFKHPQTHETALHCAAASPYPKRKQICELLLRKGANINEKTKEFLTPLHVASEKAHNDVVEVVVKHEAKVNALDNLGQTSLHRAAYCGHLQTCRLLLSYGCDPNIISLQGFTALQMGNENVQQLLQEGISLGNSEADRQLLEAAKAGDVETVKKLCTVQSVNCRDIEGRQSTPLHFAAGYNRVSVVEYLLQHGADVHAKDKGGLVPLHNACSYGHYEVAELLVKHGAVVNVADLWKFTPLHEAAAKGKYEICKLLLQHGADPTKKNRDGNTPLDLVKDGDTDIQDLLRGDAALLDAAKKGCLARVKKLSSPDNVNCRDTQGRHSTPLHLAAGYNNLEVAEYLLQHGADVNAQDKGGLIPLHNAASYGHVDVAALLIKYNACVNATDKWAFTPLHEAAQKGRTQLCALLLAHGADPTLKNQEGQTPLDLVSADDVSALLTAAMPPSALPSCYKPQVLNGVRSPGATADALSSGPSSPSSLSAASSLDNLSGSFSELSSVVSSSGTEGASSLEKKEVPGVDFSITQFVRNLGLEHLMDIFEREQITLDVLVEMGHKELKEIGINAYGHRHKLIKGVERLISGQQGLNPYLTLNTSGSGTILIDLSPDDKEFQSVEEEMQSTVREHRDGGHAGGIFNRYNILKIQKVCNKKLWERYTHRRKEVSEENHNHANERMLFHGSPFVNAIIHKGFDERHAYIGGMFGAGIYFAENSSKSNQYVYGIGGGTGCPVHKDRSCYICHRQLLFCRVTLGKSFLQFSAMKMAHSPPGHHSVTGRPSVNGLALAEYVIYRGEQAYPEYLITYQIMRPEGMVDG
Briefly: Inhibition of TNKS2 (unknown origin) using biotin-NAD+ as substrate incubated for 1 hr in the presence of deoxy-oligonucleotide by ELISA analysis relative to control.

A further data set relates to MDA-MB-468. The data set can be described thus: Antiproliferative activity against human MDA-MB-468 cells assessed as inhibition of cell growth incubated for 7 days by MTT assay. Format: functional, cell-based. The following applies: MDA-MB-468, 168 h.
Data set [5] concerns the target T4, Poly [ADP-ribose] polymerase tankyrase-2 (Homo sapiens) (UniProt Q9H2K2).
T4 sequence (whole entry): T3 sequence (Q9H2K2 whole entry)
The note with it: dose 10.0 nM, time 1.0 hrs.

Data set [6] concerns the target T5, Poly [ADP-ribose] polymerase tankyrase-1 (Homo sapiens) (UniProt O95271).
T5 sequence (whole entry): T1 sequence (O95271 whole entry)
The following applies: dose 10.0 nM, time 1.0 hrs.

Data set [7] addresses T2, Poly [ADP-ribose] polymerase 1. The data set can be described thus: Inhibition of PARP-1 (unknown origin) using biotinylated NAD+ as substrate incubated for 45 mins in the presence of deoxy-oligonucleotide by microplate reader method relative to control.
A short description of data set [8]: Cytotoxicity against mouse AML12 cells assessed as reduction in cell viability incubated for 7 days by MTT assay. It counts as toxicity, cell-based. The following applies: time 7 day.
Data set [9] has as its system HCT-116. The data set can be described thus: Inhibition of PARP in human HCT-116 cells assessed as decrease in pADPr levels at 10 uM by Western blot analysis. Format: cell-based. Background: A western blot detects proteins with antibodies after separation by electrophoresis.
Data set [10] deals with HCT-116. The data set can be described thus: Inhibition of Wnt/beta-Catenin signaling in human HCT-116 cells assessed as decrease in cyclin D1 levels at 10 uM by Western blot analysis. It counts as cell-based.
The test system of data set [11] is HCT-116. The data set can be described thus: Inhibition of Wnt/beta-Catenin signaling in human HCT-116 cells assessed as increase in axin2 levels at 10 uM by Western blot analysis. It counts as cell-based.

The source made the active and inactive calls. The rule behind the calls is not given here.

In general, IC50 refers to the concentration that inhibits the measured activity by half. A word on the inhibition: it is the percentage by which the read-out fell short of the control. As usually defined, the CC50 is the concentration giving 50% cytotoxicity.

T2 sequence (P09874 whole entry): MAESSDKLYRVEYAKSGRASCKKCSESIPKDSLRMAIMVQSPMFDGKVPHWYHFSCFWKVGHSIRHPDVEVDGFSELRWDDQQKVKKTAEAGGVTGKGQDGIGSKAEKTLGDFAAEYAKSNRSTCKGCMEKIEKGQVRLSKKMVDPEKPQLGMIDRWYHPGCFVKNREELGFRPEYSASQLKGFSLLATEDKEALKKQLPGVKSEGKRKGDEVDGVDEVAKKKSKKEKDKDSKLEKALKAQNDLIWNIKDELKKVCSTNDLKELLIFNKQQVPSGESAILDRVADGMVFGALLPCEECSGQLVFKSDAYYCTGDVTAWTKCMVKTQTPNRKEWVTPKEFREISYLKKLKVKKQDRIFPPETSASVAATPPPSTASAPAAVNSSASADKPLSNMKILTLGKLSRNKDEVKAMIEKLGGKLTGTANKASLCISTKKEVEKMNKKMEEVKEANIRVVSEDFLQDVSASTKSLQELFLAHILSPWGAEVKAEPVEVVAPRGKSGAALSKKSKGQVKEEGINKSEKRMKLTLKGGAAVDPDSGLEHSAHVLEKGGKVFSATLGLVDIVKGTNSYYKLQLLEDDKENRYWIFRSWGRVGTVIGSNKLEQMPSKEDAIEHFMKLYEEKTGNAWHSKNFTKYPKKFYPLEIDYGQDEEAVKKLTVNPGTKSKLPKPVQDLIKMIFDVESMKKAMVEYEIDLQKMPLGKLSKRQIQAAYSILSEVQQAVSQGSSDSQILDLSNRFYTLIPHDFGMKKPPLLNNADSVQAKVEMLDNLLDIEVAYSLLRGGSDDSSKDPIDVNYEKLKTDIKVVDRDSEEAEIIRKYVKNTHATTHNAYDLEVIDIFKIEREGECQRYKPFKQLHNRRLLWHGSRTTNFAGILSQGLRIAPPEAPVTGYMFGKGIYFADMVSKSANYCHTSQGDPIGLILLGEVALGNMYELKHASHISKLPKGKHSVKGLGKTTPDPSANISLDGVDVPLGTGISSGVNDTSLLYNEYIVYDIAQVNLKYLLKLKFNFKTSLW

With `Cc1ccccc1NC(=O)c1ccc(NC(=O)N2CCN(C(=O)c3cc(Cc4n[nH]c(=O)c5ccccc45)ccc3F)CC2)cc1`, the half-maximal inhibitory concentration (IC50) in data set [1] was determined as 130 nM; with HCT-116 [2] it was 1040 nM; in the data set with MDA-MB-231, 1290 nM; in [4], 110 nM; in the data set with MDA-MB-468, 70 nM; in [7], 1.62 nM. The inhibition in [3] worked out at 99%; in [5], 40%; in [6], 20%. Further, the CC50 at 168 h in data set [8] turned out to be 86.7 µM.

Take `COc1ccc(NC(=O)c2ccc(NC(=O)N3CCN(C(=O)c4cc5cccc(C(N)=O)c5o4)CC3)cc2)cc1`: the results for the inhibition in [3], in data set [5] and in data set [6] were 51.5%, 22.5% and 22.5%, respectively.

Regarding `COc1ccc(NC(=O)C2CCN(CC(=O)N3CCN(C(=O)c4cc(Cc5n[nH]c(=O)c6ccccc56)ccc4F)CC3)CC2)cc1`, the inhibition in data set [3] is 98%.

Turning to `Oc1nc(-c2ccc(C(F)(F)F)cc2)nc2c1CSCC2`, the inhibition entry with HCT-116 [9], with HCT-116 [10] and in the data set with HCT-116 [11] was “Active” each time. This compound displayed an inhibition in [6] of 86%.

Regarding `O=C(Nc1cccc(F)c1)c1ccc(NC(=O)N2CCN(C(=O)c3cc(Cc4n[nH]c(=O)c5ccccc45)ccc3F)CC2)cc1`, the values for the inhibition in data set [3] and in [5] were 98% and 26%, respectively.

On to `O=C(Nc1cccc2cccnc12)c1ccc(NC(=O)N2CCN(C(=O)c3cc(Cc4n[nH]c(=O)c5ccccc45)ccc3F)CC2)cc1`, for which the results for the inhibition in data set [3] and in [5] were 96% and 28%, respectively.

Regarding `O=C(Nc1ccccc1F)c1ccc(NC(=O)N2CCN(C(=O)c3cc(Cc4n[nH]c(=O)c5ccccc45)ccc3F)CC2)cc1`, the IC50 worked out at 506 nM in [1], 296 nM in data set [4] and 0.98 nM in [7]. The inhibition was determined as 99% in [3], 36% in [5] and 10.5% in [6].

As for `O=C(Nc1ccc(F)cc1)c1ccc(NC(=O)N2CCN(C(=O)c3cc(Cc4n[nH]c(=O)c5ccccc45)ccc3F)CC2)cc1`, the IC50 was 214 nM in data set [1]; 510 nM in the data set with HCT-116 [2]; 960 nM in the data set with MDA-MB-231; 171 nM in [4]; 110 nM in the data set on MDA-MB-468; 1.54 nM in data set [7]. The inhibition in [3] was found to be 89%; in data set [5], 38%; in data set [6], 14%. For the same compound, in [8], the 50% cytotoxic concentration (CC50) at 168 h was 37.4 µM.

On to `Cc1ccc(NC(=O)c2ccc(NC(=O)N3CCN(C(=O)c4cc(Cc5n[nH]c(=O)c6ccccc56)ccc4F)CC3)cc2)cc1`, for which the IC50 turned out to be 39 nM in [1]; 700 nM in the data set on HCT-116 [2]; 680 nM in the data set with MDA-MB-231; 14 nM in [4]; 40 nM in the data set with MDA-MB-468; 0.49 nM in [7]. The inhibition in data set [3] was 99%; in data set [5], 48%; in data set [6], 13%. Besides, the CC50 at 168 h in data set [8] was found to be 49.1 µM.

On to `COc1ccc(NC(=O)c2ccc(NC(=O)C3CCN(C(=O)c4cc(Cc5n[nH]c(=O)c6ccccc56)ccc4F)CC3)cc2)cc1`, for which the values for the inhibition in [3] and in data set [5] were 97% and 11.5%, respectively.

Consider `O=C(Nc1ccc(C(F)(F)F)cc1)c1ccc(NC(=O)N2CCN(C(=O)c3cc(Cc4n[nH]c(=O)c5ccccc45)ccc3F)CC2)cc1`, for which the IC50 in data set [1] turned out to be 551 nM; in data set [4], 367 nM; in data set [7], 4.08 nM. Further, the inhibition was determined as 98% in data set [3], 28% in data set [5] and 12.5% in data set [6].

Consider `Cc1cccc(NC(=O)c2ccc(NC(=O)N3CCN(C(=O)c4cc(Cc5n[nH]c(=O)c6ccccc56)ccc4F)CC3)cc2)c1`, for which the inhibition in data set [3] worked out at 99%; in data set [5] it was 29.5%.
